Key:
Neprilysin = Neprilysin (Homo sapiens, UniProt P08473); assay: Inhibition of neutral endopeptidase
Thermolysin = biological target: T1, Thermolysin (Bacillus thermoproteolyticus, UniProt P00800); assay: Inhibitory concentration required to inhibit thermolysin
T1 sequence (P00800 whole entry): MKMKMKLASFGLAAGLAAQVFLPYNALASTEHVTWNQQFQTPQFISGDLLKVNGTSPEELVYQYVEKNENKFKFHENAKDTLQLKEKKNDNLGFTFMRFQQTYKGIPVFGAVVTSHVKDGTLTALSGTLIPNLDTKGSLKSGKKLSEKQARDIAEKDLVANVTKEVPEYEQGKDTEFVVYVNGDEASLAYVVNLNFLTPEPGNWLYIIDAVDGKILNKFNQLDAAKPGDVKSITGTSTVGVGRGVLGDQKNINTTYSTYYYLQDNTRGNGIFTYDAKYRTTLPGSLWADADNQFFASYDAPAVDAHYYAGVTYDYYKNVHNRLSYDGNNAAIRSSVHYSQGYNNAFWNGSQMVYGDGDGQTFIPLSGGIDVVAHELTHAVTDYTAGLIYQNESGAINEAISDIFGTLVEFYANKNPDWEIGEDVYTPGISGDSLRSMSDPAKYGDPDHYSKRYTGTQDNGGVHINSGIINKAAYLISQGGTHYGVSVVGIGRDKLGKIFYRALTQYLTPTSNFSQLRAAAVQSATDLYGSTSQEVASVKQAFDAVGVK

Neprilysin, sequence (P08473 whole entry): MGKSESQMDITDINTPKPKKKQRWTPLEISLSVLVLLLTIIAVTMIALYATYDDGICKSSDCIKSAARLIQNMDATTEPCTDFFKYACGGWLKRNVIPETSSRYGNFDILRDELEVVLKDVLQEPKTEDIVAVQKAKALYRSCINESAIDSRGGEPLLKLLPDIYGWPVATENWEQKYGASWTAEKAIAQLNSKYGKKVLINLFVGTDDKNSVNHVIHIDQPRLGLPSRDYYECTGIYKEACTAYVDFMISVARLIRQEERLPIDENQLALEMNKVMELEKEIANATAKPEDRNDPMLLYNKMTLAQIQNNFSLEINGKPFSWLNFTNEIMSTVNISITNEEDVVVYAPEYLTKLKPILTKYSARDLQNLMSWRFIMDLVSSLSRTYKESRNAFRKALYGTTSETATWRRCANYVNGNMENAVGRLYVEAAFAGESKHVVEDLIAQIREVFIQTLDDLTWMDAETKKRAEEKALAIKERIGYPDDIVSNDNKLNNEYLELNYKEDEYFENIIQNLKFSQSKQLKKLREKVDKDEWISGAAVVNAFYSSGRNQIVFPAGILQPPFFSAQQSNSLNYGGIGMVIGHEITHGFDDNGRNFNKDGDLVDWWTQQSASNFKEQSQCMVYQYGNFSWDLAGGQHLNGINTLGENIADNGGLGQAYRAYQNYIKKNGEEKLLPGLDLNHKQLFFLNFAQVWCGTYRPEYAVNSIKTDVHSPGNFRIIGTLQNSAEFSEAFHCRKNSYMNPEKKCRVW

| Compound | IC50 (Neprilysin) [nM] | IC50 (Thermolysin) [nM] |
| --- | --- | --- |
| O=C1N[C@H](C(=O)O)CCCCCCc2ccccc2C[C@H]1CS | 27 | 1800 |
| O=C1N[C@H](C(=O)O)Cc2ccccc2CCCCCC[C@@H]1CS | 67 | 40000 |
| O=C1N[C@@H](C(=O)O)Cc2ccccc2CCCCC[C@@H]1CS | 99 | 49000 |
| O=C1N[C@@H](C(=O)O)Cc2ccccc2CCCCCC[C@@H]1CS | 136 | 16000 |
| O=C1N[C@H](C(=O)O)CCCCCCc2ccccc2C[C@@H]1CS | 224 | 41000 |
| O=C1N[C@H](C(=O)O)CCCCc2ccccc2C[C@@H]1CS | 0.9 | 68 |
| O=C1N[C@H](C(=O)O)CCCCCc2ccccc2C[C@@H]1CS | 3 | 600 |
| O=C1N[C@H](C(=O)O)CCCCc2ccccc2C[C@H]1CS | 7 | 2300 |
| O=C1N[C@H](C(=O)O)CCCCCc2ccccc2C[C@H]1CS | 4 | 4000 |
| O=C1N[C@@H](C(=O)O)Cc2ccccc2CCCCCCC[C@@H]1CS | > 10000 | 60000 |
| O=C1N[C@H](C(=O)O)Cc2ccccc2CCCCCCC[C@@H]1CS | 900 |  |
| O=C(O)CNC(=O)C(CS)Cc1ccccc1 (configuration not stated) [THIORPHAN] |  | 9500 |
